Values belong to the compound of their own block, whether it stands above or below them.
Key:
PSMA on LNCaP cells = target: T1, PSMA on LNCaP cells (Homo sapiens, UniProt Q04609); assay: Multi-concentration competitive binding assay against 99mTc-MIP-1427
T1 construct: host or cells: LNCaP
Method: The PSMA-expressing human prostate cancer cell line, LNCaP, was obtained from the American Type Culture Collection. Cell culture supplies were obtained from Invitrogen (USA) unless otherwise noted. LNCaP cells were maintained in RPMI-1640 medium supplemented with 10% fetal bovine serum (Hyclone), 4 mM L-glutamine, 1 mM sodium pyruvate, 10 mM N-2-hydroxyethylpiperazine-N-2-ethanesulfonic acid (HEPES), 2.5 mg/mL D-glucose, and […] gentamicin in a humidified incubator at 37° C./5% CO2. Cells were removed from flasks for passage or for transfer to 12-well assay plates by incubating them with 0.25% trypsin/ethylenediaminetetraacetic acid (EDTA).
The IC50 of metal-free RPS-085 was determined in a multi-concentration competitive binding assay against ^99mTc-MIP-1427 (Hillier et al., J Nucl Med. 2013; 54: 1369-76) for binding to PSMA on LNCaP cells, according to previously described methods (Kelly et al., Eur J Nucl Med Mol Imaging. 2018; 45: 1841-51). RPS-085 was added in to the wells in final concentrations ranging from 1 pM-10 μM. The assay was performed in triplicate, and the IC50 was expressed as mean±standard deviation.

[1] = Stability of the reformulated radioligand solution at 25° C.; format: physicochemical; conditions: after reformulation, radioHPLC
Method: The stability of the reformulated [^64Cu]Cu-RPS-085 solution was determined in triplicate at 25° C. Three 1 mL samples at a radioactivity concentration of approximately 10 MBq/mL and radiochemical purity >99% were transferred to Eppendorf tubes (VWR, USA). The samples were incubated for 24 h at 25° C. in an Eppendorf ThermoMixer® C (VWR, USA). Radiochemical purity was determined by analytical reverse phase (radio)HPLC and expressed as a fraction of the purity of the sample prior to incubation. After reformulation, [^64Cu]Cu-RPS-085 was stable at room temperature for more than 24 h.

Plasma stability = format: in vitro ADME, human; conditions: 37° C.
Method: The plasma stability of [^67Cu]Cu-RPS-085 was determined according to previously described methods (Alt, et al., Mol Pharmaceutics. 2014; 11: 2855-63). Briefly, frozen human plasma was purchased from Sigma Aldrich (USA), thawed at 37° C., and 200 μL aliquots were transferred to Eppendorf tubes. A 100 μL aliquot of [^67Cu]Cu-RPS-085 in 10% EtOH/saline was added to each tube, and the mixture was shaken at 300 rpm for 24 h at 37° C. on an Eppendorf ThermoMixer® C (VWR, USA). The experiment was performed in triplicate. The proteins were precipitated by addition of 600 μL acetonitrile. The samples were centrifuged at 13500 rpm for 3 min in an Eppendorf 5424-R Centrifuge. The supernatant was analyzed by analytical reverse phase (radio)HPLC as described above. After 24 h incubation in human plasma, [^67Cu]Cu-RPS-085 was 97.4±0.4% intact. The lone radiochemical impurity was an unidentified fragment of the parent compound.

LNCaP xenograft tumors = assay: microPET/CT imaging in LNCaP xenograft mouse model; format: in vivo, male BALB/c athymic nu/nu mice
Method: (§1) All animal studies were approved by the Institutional Animal Care and Use Committee of Weill Cornell Medicine and were undertaken in accordance with the guidelines set forth by the USPHS Policy on Humane Care and Use of Laboratory Animals. The mice were housed under standard conditions in approved facilities with 12 h light/dark cycles. Food and water was provided ad libitum throughout the course of the studies. Male BALB/c athymic nu/nu mice were purchased from the Jackson Laboratory (USA). Prior to inoculation, LNCaP cells were suspended at a density of 4×10^7 cells/mL in a 1:1 mixture of PBS (VWR, USA):Matrigel (BD Biosciences, USA). Each mouse was injected subcutaneously in the left flank with 0.25 mL of the cell suspension. The animals were monitored twice weekly until palpable tumors emerged.
When tumor size was in the range 200-500 mm^3, mice (n=4) were administered 21.2±0.5 MBq [^64Cu]Cu-RPS-085 by intravenous injection. The total mass dose received by each animal was approximately 300 ng (185 pmol). The mice were imaged under isoflurane anesthesia at 1 h, 3 h, 6 h, 24 h, and 48 h post injection (p.i.) by microPET/CT (Inveon™; Siemens Medical Solutions, USA). Total acquisition time was 30 min. A CT scan was obtained immediately before the PET acquisition for both anatomical co-registration and attenuation correction. Images were reconstructed using the Inveon™ software provided by the vendor.

LNCaP xenografts = assay: Tissue biodistribution in mice bearing LNCaP xenografts; format: in vivo, male Balb/C nu/nu mice; conditions: for activity in kidneys / tumor uptake: i.v., ±SEM
Method: as §1
When tumor size reached approximately 200 mm^3, mice (n=4/time point) were administered 3.8±0.1 MBq [^64Cu]Cu-RPS-085 or 0.8±0.005 MBq [^67Cu]Cu-RPS-085 by intravenous injection. The total mass dose received by each animal was approximately 50 ng (31 pmol) and approximately 28 ng (17 pmol) for the [^64Cu]Cu-RPS-085 and [^67Cu]Cu-RPS-085 studies, respectively. The mice were sacrificed at 4 h, 24 h, or 48 h p.i. ([^64Cu]Cu-RPS-085) or 4 h, 24 h, and 96 h ([^67Cu]Cu-RPS-085). A blood sample was collected, and the following tissues were collected and weighed wet using a digital balance: heart, lungs, liver, stomach, small intestine, large intestine, spleen, pancreas, kidneys, muscle, bone, and tumor. The tissues were counted on a Wizard2 Automatic Gamma Counter (Perkin Elmer, USA) against a 1% injected dose standard. The counts were corrected for decay and for activity injected, and tissue uptake was expressed as percent injected dose per gram (% ID/g). Standard error of the mean (SEM) was calculated for each data point. Statistical analyses were performed using an unpaired t test with GraphPad Prism software. A P value of less than 0.05 was considered significant. The concentration of [67Cu]Cu-RPS-085 found in blood, heart, lungs, liver, small intestine, large intestine, stomach, spleen, pancreas, kidneys, muscle, and bone at 4 h, 24 h, and 96 h, post injection (n=4 per time point) is shown in Table 1 below. Published values for [177Lu]Lu-RPS-063 are shown for comparison; all concentrations are expressed as percent injected dose per organ.

T1 sequence (Q04609 whole entry): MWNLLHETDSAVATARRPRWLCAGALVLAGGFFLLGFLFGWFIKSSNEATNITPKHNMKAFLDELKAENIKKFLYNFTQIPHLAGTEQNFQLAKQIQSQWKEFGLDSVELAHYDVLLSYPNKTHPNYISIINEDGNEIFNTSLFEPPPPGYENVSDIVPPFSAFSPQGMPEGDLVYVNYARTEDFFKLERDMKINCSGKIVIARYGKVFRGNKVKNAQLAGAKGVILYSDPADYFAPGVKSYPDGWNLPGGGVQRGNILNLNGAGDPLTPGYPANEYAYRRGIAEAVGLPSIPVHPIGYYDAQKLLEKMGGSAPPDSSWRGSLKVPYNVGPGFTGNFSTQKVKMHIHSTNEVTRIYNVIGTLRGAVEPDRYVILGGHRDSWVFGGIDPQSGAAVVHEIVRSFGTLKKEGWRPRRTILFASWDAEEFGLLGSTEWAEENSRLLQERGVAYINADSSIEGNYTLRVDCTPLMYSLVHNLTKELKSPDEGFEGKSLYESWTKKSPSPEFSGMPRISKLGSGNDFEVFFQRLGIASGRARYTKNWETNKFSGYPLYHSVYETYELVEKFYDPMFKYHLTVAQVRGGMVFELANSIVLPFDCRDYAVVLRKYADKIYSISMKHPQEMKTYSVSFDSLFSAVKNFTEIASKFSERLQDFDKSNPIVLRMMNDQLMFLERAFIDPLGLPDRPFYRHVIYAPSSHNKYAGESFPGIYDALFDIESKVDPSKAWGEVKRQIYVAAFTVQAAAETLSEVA

Structure (SMILES): CC12CNCCNCC(NC(=O)CCCC(=O)NCCCC[C@H](NC(=O)CCOCCOCCOCCn3cc(-c4cccc(NC(=O)NCCCC[C@H](NC(=O)N[C@@H](CCC(=O)O)C(=O)O)C(=O)O)c4)nn3)C(=O)N[C@@H](CCCCNC(=O)Cc3ccc(I)cc3)C(=O)O)(CNCCNC1)CNCCNC2 [RPS-085]
IC50 (PSMA on LNCaP cells): 29.1 ± 2.4 nM
affinity for PSMA relative to parent compound RPS-063 (PSMA on LNCaP cells): reduced by approximately one order of magnitude

time stable in solution at room temperature [1]: more than 24 h
time stable in human plasma (Plasma stability): more than 24 h
Structure (SMILES): CC12CNCCNCC(NC(=O)CCCC(=O)NCCCC[C@H](NC(=O)CCOCCOCCOCCn3cc(-c4cccc(NC(=O)NCCCC[C@H](NC(=O)N[C@@H](CCC(=O)O)C(=O)O)C(=O)O)c4)nn3)C(=O)N[C@@H](CCCCNC(=O)Cc3ccc(I)cc3)C(=O)O)(CNCCNC1)C[N@]1CC[N@](C2)[Cu]1 [[^64/67Cu]Cu-RPS-085]

Structure (SMILES): CC12CNCCNCC(NC(=O)CCCC(=O)NCCCC[C@H](NC(=O)CCOCCOCCOCCn3cc(-c4cccc(NC(=O)NCCCC[C@H](NC(=O)N[C@@H](CCC(=O)O)C(=O)O)C(=O)O)c4)nn3)C(=O)N[C@@H](CCCCNC(=O)Cc3ccc(I)cc3)C(=O)O)(CNCCNC1)CNCCNC2.[64Cu+2] [[^64Cu]Cu-RPS-085]
time stable in solution at room temperature [1]: more than 24 h
background tissue activity (LNCaP xenograft tumors; microPET/CT): low
primary route of excretion (LNCaP xenograft tumors; microPET/CT): Renal clearance
time by which only tumors could be visualized (LNCaP xenograft tumors; microPET/CT): ≤ 24 h
time by which uptake in tumors exceeded kidneys (LNCaP xenograft tumors; mouse, in vivo): ≤ 6 h p.i.
time of greatest activity in the tumor (LNCaP xenograft tumors; mouse, in vivo): 3 h p.i.
activity in the tumor over time (LNCaP xenograft tumors; over the 48 h imaging window, semi-quantitative, ROIs): virtually stable
tumor-to-blood ratio (LNCaP xenografts; 4 h p.i.): 230±33
tumor-to-kidney ratio (LNCaP xenografts; 4 h p.i.): 0.9±0.2
activity in kidneys (LNCaP xenografts; 4 h p.i.): 13.7±2.3 % ID/g
tumor uptake (LNCaP xenografts; 4 h p.i.): 12.9±1.4 % ID/g
tumor-to-kidney ratio (LNCaP xenografts; 24 h p.i.): 3.4±0.7
activity in kidneys (LNCaP xenografts; 24 h p.i.): 2.4±0.4 % ID/g
tumor uptake (LNCaP xenografts; 24 h p.i.): 8.3±0.8 % ID/g
tumor-to-kidney ratio (LNCaP xenografts; 48 h p.i.): 6.1±0.8
activity in kidneys (LNCaP xenografts; 48 h p.i.): 1.6±0.1 % ID/g
tumor uptake (LNCaP xenografts; 48 h p.i.): 9.8±1.3 % ID/g
tumor-to-muscle ratio (LNCaP xenografts; all observed time points): greater than 500
activity in all other tissues including liver (LNCaP xenografts; all time points (4, 24, 48 h p.i.)): less than 0.5 % ID/g
tumor-to-blood ratio (LNCaP xenografts; subsequently (after 4 h p.i.)): exceeded 400

Structure (SMILES): CC12CNCCNCC(NC(=O)CCCC(=O)NCCCC[C@H](NC(=O)CCOCCOCCOCCn3cc(-c4cccc(NC(=O)NCCCC[C@H](NC(=O)N[C@@H](CCC(=O)O)C(=O)O)C(=O)O)c4)nn3)C(=O)N[C@@H](CCCCNC(=O)Cc3ccc(I)cc3)C(=O)O)(CNCCNC1)CNCCNC2.[67Cu+2] [[^67Cu]Cu-RPS-085]
fraction intact after incubation in human plasma (Plasma stability; 24 h): 97.4±0.4%
uncomplexed [67Cu]Cu2+ after incubation in human plasma (Plasma stability; 24 h): No uncomplexed [^67Cu]Cu^2+ was observed
activity in kidneys (LNCaP xenografts; 4 h p.i.): 19.7±5.0 % ID/g
tumor uptake (LNCaP xenografts; 4 h p.i.): 12.5±2.7 % ID/g
Concentration in Blood (LNCaP xenografts; 4 h post injection): 0.02057 percent injected dose per organ
Concentration in Bone (LNCaP xenografts; 4 h post injection): 0.003853 percent injected dose per organ
Concentration in Heart (LNCaP xenografts; 4 h post injection): 0.01078 percent injected dose per organ
Concentration in Kidneys (LNCaP xenografts; 4 h post injection): 11.63 percent injected dose per organ
Concentration in Large Intestine (LNCaP xenografts; 4 h post injection): 0.29 percent injected dose per organ
Concentration in Liver (LNCaP xenografts; 4 h post injection): 0.2795 percent injected dose per organ
Concentration in Lungs (LNCaP xenografts; 4 h post injection): 0.0358 percent injected dose per organ
Concentration in Muscle (LNCaP xenografts; 4 h post injection): 0.002757 percent injected dose per organ
Concentration in Pancreas (LNCaP xenografts; 4 h post injection): 0.00535 percent injected dose per organ
Concentration in Small Intestine (LNCaP xenografts; 4 h post injection): 0.1493 percent injected dose per organ
Concentration in Spleen (LNCaP xenografts; 4 h post injection): 0.02732 percent injected dose per organ
Concentration in Stomach (LNCaP xenografts; 4 h post injection): 0.05547 percent injected dose per organ
activity in kidneys (LNCaP xenografts; 24 h p.i.): 4.5±0.8 % ID/g
tumor uptake (LNCaP xenografts; 24 h p.i.): 7.9±0.9 % ID/g
Concentration in Blood (LNCaP xenografts; 24 h post injection): 0.005816 percent injected dose per organ
Concentration in Bone (LNCaP xenografts; 24 h post injection): 0.001592 percent injected dose per organ
Concentration in Heart (LNCaP xenografts; 24 h post injection): 0.0068 percent injected dose per organ
Concentration in Kidneys (LNCaP xenografts; 24 h post injection): 1.857 percent injected dose per organ
Concentration in Large Intestine (LNCaP xenografts; 24 h post injection): 0.1354 percent injected dose per organ
Concentration in Liver (LNCaP xenografts; 24 h post injection): 0.1811 percent injected dose per organ
Concentration in Lungs (LNCaP xenografts; 24 h post injection): 0.01881 percent injected dose per organ
Concentration in Muscle (LNCaP xenografts; 24 h post injection): 0.001018 percent injected dose per organ
Concentration in Pancreas (LNCaP xenografts; 24 h post injection): 0.002143 percent injected dose per organ
Concentration in Small Intestine (LNCaP xenografts; 24 h post injection): 0.08652 percent injected dose per organ
Concentration in Spleen (LNCaP xenografts; 24 h post injection): 0.008292 percent injected dose per organ
Concentration in Stomach (LNCaP xenografts; 24 h post injection): 0.04228 percent injected dose per organ
tumor-to-kidney ratio (LNCaP xenografts; 96 h p.i.): 3.0±0.5
activity in kidneys (LNCaP xenografts; 96 h p.i.): 1.7±0.3 % ID/g
tumor uptake (LNCaP xenografts; 96 h p.i.): 5.1±3.3 % ID/g
Concentration in Blood (LNCaP xenografts; 96 h post injection): 0.003526 percent injected dose per organ
Concentration in Bone (LNCaP xenografts; 96 h post injection): 0.001075 percent injected dose per organ
Concentration in Heart (LNCaP xenografts; 96 h post injection): 0.008094 percent injected dose per organ
Concentration in Kidneys (LNCaP xenografts; 96 h post injection): 0.6854 percent injected dose per organ
Concentration in Large Intestine (LNCaP xenografts; 96 h post injection): 0.1379 percent injected dose per organ
Concentration in Liver (LNCaP xenografts; 96 h post injection): 0.1208 percent injected dose per organ
Concentration in Lungs (LNCaP xenografts; 96 h post injection): 0.01063 percent injected dose per organ
Concentration in Muscle (LNCaP xenografts; 96 h post injection): 0.000956 percent injected dose per organ
Concentration in Pancreas (LNCaP xenografts; 96 h post injection): 0.003044 percent injected dose per organ
Concentration in Small Intestine (LNCaP xenografts; 96 h post injection): 0.06091 percent injected dose per organ
Concentration in Spleen (LNCaP xenografts; 96 h post injection): 0.005006 percent injected dose per organ
Concentration in Stomach (LNCaP xenografts; 96 h post injection): 0.04483 percent injected dose per organ
accumulated activity (Ã) in kidneys (LNCaP xenografts; over 96 h p.i.): 538 (% ID/g)·h
accumulated activity (Ã) in tumors (LNCaP xenografts; over 96 h p.i.): 699 (% ID/g)·h
Ãtumor relative to [177Lu]PSMA-617 (LNCaP xenografts; over 96 h p.i.): 1.3 times
Ãtumor/Ãkidney ratio (LNCaP xenografts; over 96 h p.i.): 1.3

Source: patent US20230165979A1, “COPPER-CONTAINING THERAGNOSTIC COMPOSITIONS AND METHODS OF USE” (Cornell University, priority 2020, published 2023)
